From patent US9936701B2, “Herbicidal compounds” (Syngenta Participations AG, priority 2013, dated 2018)

tested on: a variety of test species; test: Pre-emergence herbicidal activity (glasshouse, sprayed one day after sowing, evaluated after 13 days); format: in vivo; parameters: key: 5=total damage to plant; 0=no damage to plant; details: ABUTH, application pre-emergence, rate 1000 g/Ha, scale 0-5
Description: Seeds of a variety of test species were sown in standard soil in pots. After cultivation for one day (pre-emergence) under controlled conditions in a glasshouse (at 24/16° C., day/night; 14 hours light; 65% humidity), the plants were sprayed with an aqueous spray solution derived from the formulation of the technical active ingredient in acetone/water (50:50) solution containing 0.5% Tween 20 (polyoxyethelyene sorbitan monolaurate, CAS RN 9005-64-5). The test plants were then grown in a glasshouse under controlled conditions (at 24/16° C., day/night; 14 hours light; 65% humidity) and watered twice daily. After 13 days, the test was evaluated (5=total damage to plant; 0=no damage to plant).

Compound | Pre-emergence herbicidal damage score, ABUTH
CC1=C(Br)C(=O)N(c2cc(C(C)(C)C)on2)C1O (stereo not drawn) [A1] | 5
CC1=C(Br)C(=O)N(c2cc(C)on2)C1O (stereo not drawn) [A3] | 5
CC1=C(Cl)C(=O)N(c2cc(C)on2)C1O (stereo not drawn) [A4] | 5
CC1=C(Br)C(=O)N(c2cc(C(F)(F)F)on2)C1O (stereo not drawn) [A6] | 0
COCC(C)(C)c1cc(N2C(=O)C(Cl)=C(C)C2O)no1 (stereo not drawn) [A7] | 5
COCC(C)(C)c1cc(N2C(=O)C(Br)=C(C)C2O)no1 (stereo not drawn) [A8] | 5

same assay, conditions: ALOMY, application pre-emergence, rate 1000 g/Ha, scale 0-5

Compound | Pre-emergence herbicidal damage score, ALOMY
CC1=C(Br)C(=O)N(c2cc(C(C)(C)C)on2)C1O (stereo not drawn) [A1] | 2
CC1=C(Br)C(=O)N(c2cc(C)on2)C1O (stereo not drawn) [A3] | 3
CC1=C(Cl)C(=O)N(c2cc(C)on2)C1O (stereo not drawn) [A4] | 3
CC1=C(Br)C(=O)N(c2cc(C(F)(F)F)on2)C1O (stereo not drawn) [A6] | 1
COCC(C)(C)c1cc(N2C(=O)C(Cl)=C(C)C2O)no1 (stereo not drawn) [A7] | 3
COCC(C)(C)c1cc(N2C(=O)C(Br)=C(C)C2O)no1 (stereo not drawn) [A8] | 3

same assay, conditions: AMARE, application pre-emergence, rate 1000 g/Ha, scale 0-5

Compound | Pre-emergence herbicidal damage score, AMARE
CC1=C(Br)C(=O)N(c2cc(C(C)(C)C)on2)C1O (stereo not drawn) [A1] | 5
CC1=C(Br)C(=O)N(c2cc(C)on2)C1O (stereo not drawn) [A3] | 5
CC1=C(Cl)C(=O)N(c2cc(C)on2)C1O (stereo not drawn) [A4] | 5
CC1=C(Br)C(=O)N(c2cc(C(F)(F)F)on2)C1O (stereo not drawn) [A6] | 0
COCC(C)(C)c1cc(N2C(=O)C(Cl)=C(C)C2O)no1 (stereo not drawn) [A7] | 5
COCC(C)(C)c1cc(N2C(=O)C(Br)=C(C)C2O)no1 (stereo not drawn) [A8] | 5

same assay, conditions: ECHCG, application pre-emergence, rate 1000 g/Ha, scale 0-5

Compound | Pre-emergence herbicidal damage score, ECHCG
CC1=C(Br)C(=O)N(c2cc(C(C)(C)C)on2)C1O (stereo not drawn) [A1] | 4
CC1=C(Br)C(=O)N(c2cc(C)on2)C1O (stereo not drawn) [A3] | 3
CC1=C(Cl)C(=O)N(c2cc(C)on2)C1O (stereo not drawn) [A4] | 4
CC1=C(Br)C(=O)N(c2cc(C(F)(F)F)on2)C1O (stereo not drawn) [A6] | 1
COCC(C)(C)c1cc(N2C(=O)C(Cl)=C(C)C2O)no1 (stereo not drawn) [A7] | 4
COCC(C)(C)c1cc(N2C(=O)C(Br)=C(C)C2O)no1 (stereo not drawn) [A8] | 4

same assay, conditions: SETFA, application pre-emergence, rate 1000 g/Ha, scale 0-5

Compound | Pre-emergence herbicidal damage score, SETFA
CC1=C(Br)C(=O)N(c2cc(C(C)(C)C)on2)C1O (stereo not drawn) [A1] | 5
CC1=C(Br)C(=O)N(c2cc(C)on2)C1O (stereo not drawn) [A3] | 5
CC1=C(Cl)C(=O)N(c2cc(C)on2)C1O (stereo not drawn) [A4] | 5
CC1=C(Br)C(=O)N(c2cc(C(F)(F)F)on2)C1O (stereo not drawn) [A6] | 1
COCC(C)(C)c1cc(N2C(=O)C(Cl)=C(C)C2O)no1 (stereo not drawn) [A7] | 4
COCC(C)(C)c1cc(N2C(=O)C(Br)=C(C)C2O)no1 (stereo not drawn) [A8] | 4

same assay, conditions: ZEAMX, application pre-emergence, rate 1000 g/Ha, scale 0-5

Compound | Pre-emergence herbicidal damage score, ZEAMX
CC1=C(Br)C(=O)N(c2cc(C(C)(C)C)on2)C1O (stereo not drawn) [A1] | 1
CC1=C(Br)C(=O)N(c2cc(C)on2)C1O (stereo not drawn) [A3] | 2
CC1=C(Cl)C(=O)N(c2cc(C)on2)C1O (stereo not drawn) [A4] | 2
CC1=C(Br)C(=O)N(c2cc(C(F)(F)F)on2)C1O (stereo not drawn) [A6] | 0
COCC(C)(C)c1cc(N2C(=O)C(Cl)=C(C)C2O)no1 (stereo not drawn) [A7] | 2
COCC(C)(C)c1cc(N2C(=O)C(Br)=C(C)C2O)no1 (stereo not drawn) [A8] | 1

tested on: a variety of test species; test: Post-emergence herbicidal activity (glasshouse, sprayed after 8 days cultivation, evaluated after 13 days); format: in vivo; parameters: key: 5=total damage to plant; 0=no damage to plant; details: Abutilon theophrasti, rate 1000 g/Ha, scale 0-5
Description: Seeds of a variety of test species were sown in standard soil in pots. After 8 days cultivation (post-emergence) under controlled conditions in a glasshouse (at 24/16° C., day/night; 14 hours light; 65% humidity), the plants were sprayed with an aqueous spray solution derived from the formulation of the technical active ingredient in acetone/water (50:50) solution containing 0.5% Tween 20 (polyoxyethelyene sorbitan monolaurate, CAS RN 9005-64-5). The test plants were then grown in a glasshouse under controlled conditions (at 24/16° C., day/night; 14 hours light; 65% humidity) and watered twice daily. After 13 days, the test was evaluated (5=total damage to plant; 0=no damage to plant).

Compound | ABUTH (Abutilon theophrasti) damage score, application post-emergence
CC1=C(Br)C(=O)N(c2cc(C(C)(C)C)on2)C1O (stereo not drawn) [A1] | 5
CC1=C(Br)C(=O)N(c2cc(C)on2)C1O (stereo not drawn) [A3] | 5
CC1=C(Cl)C(=O)N(c2cc(C)on2)C1O (stereo not drawn) [A4] | 5
CC1=C(Br)C(=O)N(c2cc(C(F)(F)F)on2)C1O (stereo not drawn) [A6] | 4
COCC(C)(C)c1cc(N2C(=O)C(Cl)=C(C)C2O)no1 (stereo not drawn) [A7] | 5
COCC(C)(C)c1cc(N2C(=O)C(Br)=C(C)C2O)no1 (stereo not drawn) [A8] | 5

same assay, conditions: Alopecurus myosuroides, rate 1000 g/Ha, scale 0-5

Compound | ALOMY (Alopecurus myosuroides) damage score, application post-emergence
CC1=C(Br)C(=O)N(c2cc(C(C)(C)C)on2)C1O (stereo not drawn) [A1] | 5
CC1=C(Br)C(=O)N(c2cc(C)on2)C1O (stereo not drawn) [A3] | 4
CC1=C(Cl)C(=O)N(c2cc(C)on2)C1O (stereo not drawn) [A4] | 4
CC1=C(Br)C(=O)N(c2cc(C(F)(F)F)on2)C1O (stereo not drawn) [A6] | 2
COCC(C)(C)c1cc(N2C(=O)C(Cl)=C(C)C2O)no1 (stereo not drawn) [A7] | 5
COCC(C)(C)c1cc(N2C(=O)C(Br)=C(C)C2O)no1 (stereo not drawn) [A8] | 5

same assay, conditions: Amaranthus retroflexus, rate 1000 g/Ha, scale 0-5

Compound | AMARE (Amaranthus retroflexus) damage score, application post-emergence
CC1=C(Br)C(=O)N(c2cc(C(C)(C)C)on2)C1O (stereo not drawn) [A1] | 5
CC1=C(Br)C(=O)N(c2cc(C)on2)C1O (stereo not drawn) [A3] | 5
CC1=C(Cl)C(=O)N(c2cc(C)on2)C1O (stereo not drawn) [A4] | 5
CC1=C(Br)C(=O)N(c2cc(C(F)(F)F)on2)C1O (stereo not drawn) [A6] | 4
COCC(C)(C)c1cc(N2C(=O)C(Cl)=C(C)C2O)no1 (stereo not drawn) [A7] | 4
COCC(C)(C)c1cc(N2C(=O)C(Br)=C(C)C2O)no1 (stereo not drawn) [A8] | 3

same assay, conditions: Echinochloa crus-galli, rate 1000 g/Ha, scale 0-5

Compound | ECHCG (Echinochloa crus-galli) damage score, application post-emergence
CC1=C(Br)C(=O)N(c2cc(C(C)(C)C)on2)C1O (stereo not drawn) [A1] | 5
CC1=C(Br)C(=O)N(c2cc(C)on2)C1O (stereo not drawn) [A3] | 5
CC1=C(Cl)C(=O)N(c2cc(C)on2)C1O (stereo not drawn) [A4] | 5
CC1=C(Br)C(=O)N(c2cc(C(F)(F)F)on2)C1O (stereo not drawn) [A6] | 3
COCC(C)(C)c1cc(N2C(=O)C(Cl)=C(C)C2O)no1 (stereo not drawn) [A7] | 5
COCC(C)(C)c1cc(N2C(=O)C(Br)=C(C)C2O)no1 (stereo not drawn) [A8] | 5

same assay, conditions: Setaria faberi, rate 1000 g/Ha, scale 0-5

Compound | SETFA (Setaria faberi) damage score, application post-emergence
CC1=C(Br)C(=O)N(c2cc(C(C)(C)C)on2)C1O (stereo not drawn) [A1] | 5
CC1=C(Br)C(=O)N(c2cc(C)on2)C1O (stereo not drawn) [A3] | 5
CC1=C(Cl)C(=O)N(c2cc(C)on2)C1O (stereo not drawn) [A4] | 5
CC1=C(Br)C(=O)N(c2cc(C(F)(F)F)on2)C1O (stereo not drawn) [A6] | 2
COCC(C)(C)c1cc(N2C(=O)C(Cl)=C(C)C2O)no1 (stereo not drawn) [A7] | 5
COCC(C)(C)c1cc(N2C(=O)C(Br)=C(C)C2O)no1 (stereo not drawn) [A8] | 5

same assay, conditions: Zea mays, rate 1000 g/Ha, scale 0-5

Compound | ZEAMX (Zea mays) damage score, application post-emergence
CC1=C(Br)C(=O)N(c2cc(C(C)(C)C)on2)C1O (stereo not drawn) [A1] | 4
CC1=C(Br)C(=O)N(c2cc(C)on2)C1O (stereo not drawn) [A3] | 3
CC1=C(Cl)C(=O)N(c2cc(C)on2)C1O (stereo not drawn) [A4] | 3
CC1=C(Br)C(=O)N(c2cc(C(F)(F)F)on2)C1O (stereo not drawn) [A6] | 0
COCC(C)(C)c1cc(N2C(=O)C(Cl)=C(C)C2O)no1 (stereo not drawn) [A7] | 5
COCC(C)(C)c1cc(N2C(=O)C(Br)=C(C)C2O)no1 (stereo not drawn) [A8] | 3
